In patent US20060025390A1, “Treatment of hormone allergy and related symptoms and disorders” (priority 2004, published 2006):

B1: myelin basic protein (protein, UniProt P02686 1-304, looked up)
Myelin basic protein: MGNHAGKRELNAEKASTNSETNRGESEKKRNLGELSRTTSEDNEVFGEADANQNNGTSSQDTAVTDSKRTADPKNAWQDAHPADPGSRPHLIRLFSRDAPGREDNTFKDRPSESDELQTIQEDSAATSESLDVMASQKRPSQRHGSKYLATASTMDHARHGFLPRHRDTGILDSIGRFFGGDRGAPKRGSGKDSHHPARTAHYGSLPQKSHGRTQDENPVVHFFKNIVTPRTPPPSQGKGRGLSLSRFSWGAEGQRPGFGYGGRASDYKSAHKGFKGVDAQGTLSKIFKLGGRDSRSGSPMARR

Tests used:
[1] = test system: serum IgG anti-17-α-hydroxyprogesterone antibodies; assay: ELISA binding of IgG 17-α-hydroxyprogesterone antibodies to different hormones in solid phase; parameters: species or system human; details: for IgG anti-17-α-hydroxyprogesterone binding: in comparison to 100% binding to 17-α-hydroxyprogesterone, over three sera; for IgG binding (optical density): hormone in solid phase, 405 nm; for IgG % reaction: relative to 17-α-hydroxyprogesterone = 100
Procedure: (§1) The ELISA inhibition method was used to determine specificity and cross-reactivity between different hormones and to ensure the degree of human IgG, IgM and IgE estrogen or progesterone binding to estrogen or progesterone in solid phase. […] 100 μl of sera from three different patients with high IgG, IgM or IgE antibodies against 17-α-hydroxyprogesterone was added to all wells. After shaking and incubation for 1 hr at room temperature, addition of enzyme labeled anti-human IgG, IgM or IgE, repeat of incubation, washing, and addition of substrate, color development was measured at 405 nm. Results were calculated as percentage of anti-17-α-hydroxyprogesterone binding to 17-α-hydroxyprogesterone and other hormones. Also, anti-estrogen binding to estrogen and other hormones in solid phase by progesterone in liquid phase was performed and calculated in a similar manner.
(§2) Human sera containing 17-α-hydroxyprogesterone IgG-, IgM- and IgE-binding antibodies were reacted against progesterone, estrogen, hydrocortisone and cholesterol. In comparison to 100% binding of anti-17-α-hydroxyprogesterone-binding to 17-α-hydroxyprogesterone, the IgG anti-17-α-hydroxyprogesterone-binding to progesterone, estrogen, hydrocortisone and cholesterol was 69-77%, 25-30%, 39-53%, and less than 10% respectively (Table 4). The % binding of serum IgM and IgE anti-17-α-hydroxyprogesterone to 17-1-hydroxyprogesterone, progesterone, estrogen, hydrocortisone and cholesterol was similar to the binding of IgG. This binding of anti-17-α-hydroxyprogesterone to progesterone was the highest, followed by hydrocortisone, then estrogen, to almost no binding with cholesterol. Similar to this, human sera with IgG, IgM and IgE binding antibodies against estrogen were reacted with progesterone, 17-α-hydroxyprogesterone, hydrocortisone and cholesterol, in the presence of estrogen.

[2] = test system: serum IgM anti-17-α-hydroxyprogesterone antibodies; assay: ELISA binding of IgM 17-α-hydroxyprogesterone antibodies to different hormones in solid phase; parameters: species or system human; details: for IgM binding (optical density): hormone in solid phase, 405 nm; for IgM % reaction: relative to 17-α-hydroxyprogesterone = 100
Procedure: as §1, §2

[3] = test system: serum IgE anti-17-α-hydroxyprogesterone antibodies; assay: ELISA binding of IgE 17-α-hydroxyprogesterone antibodies to different hormones in solid phase; parameters: species or system human; details: for IgE binding (optical density): hormone in solid phase, 405 nm; for IgE % reaction: relative to 17-α-hydroxyprogesterone = 100
Procedure: as §1, §2

[4] = test system: serum IgG anti-estrogen antibodies; assay: ELISA binding of IgG estrogen antibodies to different hormones in solid phase; parameters: species or system human; details: for IgG anti-estrogen binding: relative to estrogen, over three sera; for IgG binding (optical density): hormone in solid phase, 405 nm; for IgG % reaction: relative to estrogen = 100
Procedure: as §1, §2

[5] = test system: serum IgM anti-estrogen antibodies; assay: ELISA binding of IgM estrogen antibodies to different hormones in solid phase; parameters: species or system human; details: for IgM anti-estrogen binding: relative to estrogen, over three sera; for IgM binding (optical density): hormone in solid phase, 405 nm; for IgM % reaction: relative to estrogen = 100
Procedure: as §1, §2

[6] = test system: serum IgE anti-estrogen antibodies; assay: ELISA binding of IgE estrogen antibodies to different hormones in solid phase; parameters: species or system human; details: for IgE anti-estrogen binding: relative to estrogen, over three sera; for IgE binding (optical density): hormone in solid phase, 405 nm; for IgE % reaction: relative to estrogen = 100
Procedure: as §1, §2

[7] = test system: serum IgG anti-estrogen antibodies; assay: Competition ELISA: absorption of serum IgG anti-estrogen with specific and non-specific antigens; type: binding, human; details: for inhibition of anti-estrogen binding to estrogen (IgG): antigen in liquid phase, over the three sera; for IgG level after absorption: absorption with 250 μg/mL, optical density 405 nm
Procedure: (§3) For this, microtiter plates were coated with hormones and blocked by the addition of 2% BSA in PBST. 100 μl of serum diluent buffer was added to all wells. […] After 60 minutes incubation 100 μl serum anti-estrogen or anti-progesterone was added to all wells. […] Results were calculated as percentage of inhibition in antigen-antibody reaction.
(§4) To examine whether antibodies to estrogen or progesterone are specific or cross-reactive, we performed competition ELISA by adding specific and non-specific antigens in liquid phase and examined prevention of serum antibody binding to the antigen in solid phase. […] For IgE anti-estrogen, this inhibition by estrogen-BSA was between 54-62%, and with progesterone-BSA, from 37-43%. […] This cross-reaction between estrogen and progesterone antibodies may be due to structural similarities between these two hormones.

[8] = test system: serum IgE anti-estrogen antibodies; assay: Competition ELISA: absorption of serum IgE anti-estrogen with specific and non-specific antigens; type: binding, human; details: for inhibition of IgE anti-estrogen binding: antigen in liquid phase, over the three sera; for IgE level after absorption: absorption with 250 μg/mL, optical density 405 nm
Procedure: as §3, §4

[9] = serum sample 1, before absorption 1.83
[10] = serum sample 2, before absorption 1.25
[11] = serum sample 3, before absorption 0.76
[12] = serum sample 1, before absorption 2.15
[13] = serum sample 2, before absorption 1.66
[14] = serum sample 3, before absorption 1.34

Molecule | IgG anti-17-α-hydroxyprogesterone binding [1] | IgG binding (optical density) ([1]; sample 1) | IgG % reaction ([1]; sample 1) | IgG binding (optical density) ([1]; sample 2) | IgG binding (optical density) ([1]; sample 3) | IgM binding (optical density) ([2]; sample 1) | IgM binding (optical density) ([2]; sample 2) | IgM binding (optical density) ([2]; sample 3) | IgE binding (optical density) ([3]; sample 1) | IgE binding (optical density) ([3]; sample 2) | IgE % reaction ([3]; sample 2) | IgE binding (optical density) ([3]; sample 3) | IgG binding (optical density) ([4]; sample 1) | IgG binding (optical density) ([4]; sample 2) | IgG binding (optical density) ([4]; sample 3) | IgM binding (optical density) ([5]; sample 1) | IgM binding (optical density) ([5]; sample 2) | IgM % reaction ([5]; sample 2) | IgM binding (optical density) ([5]; sample 3) | IgM % reaction ([5]; sample 3) | other results
CC(C)CCC[C@@H](C)[C@H]1CC[C@H]2[C@@H]3CC=C4C[C@@H](O)CC[C@]4(C)[C@H]3CC[C@]12C [C, Cholesterol] | less than 10% | 0.21 | −13% | 0.12 | 0.17 | 0.18 | 0.19 | 0.15 | 0.2 | 0.23 | −10% | 0.18 | 0.12 | 0.19 | 0.15 | 0.13 | 0.25 | −12% | 0.24 | −18% | IgG anti-estrogen binding [4]: not significant; IgM anti-estrogen binding [5]: not significant; IgE anti-estrogen binding [6]: not significant; IgE binding (optical density) ([6]; sample 1): 0.15; IgE binding (optical density) ([6]; sample 2): 0.21; IgE % reaction ([6]; sample 2): −14%; IgE binding (optical density) ([6]; sample 3): 0.28; IgE % reaction ([6]; sample 3): −17%
C[C@]12CCC(=O)C=C1CC[C@@H]1[C@@H]2[C@@H](O)C[C@@]2(C)[C@H]1CC[C@]2(O)C(=O)CO [HC, Hydrocortisone] | 39-53% | 0.69 | −43% | 0.37 | 0.36 | 0.47 | 0.5 | 0.51 | 0.58 | 1.2 | −50% | 0.68 | 0.15 | 0.31 | 0.18 | 0.16 | 0.44 | −21% | 0.23 | −18% | IgG % reaction ([1]; sample 2): −39%; IgG % reaction ([1]; sample 3): −53%; IgM % reaction ([2]; sample 1): −36%; IgM % reaction ([2]; sample 2): −39%; IgM % reaction ([2]; sample 3): −55%; IgE % reaction ([3]; sample 1): −40%; IgE % reaction ([3]; sample 3): −39%; IgG anti-estrogen binding [4]: not significant; IgG % reaction ([4]; sample 2): −17%; IgM anti-estrogen binding [5]: not significant; IgE anti-estrogen binding [6]: not significant; IgE binding (optical density) ([6]; sample 1): 0.17; IgE binding (optical density) ([6]; sample 2): 0.29; IgE % reaction ([6]; sample 2): −19%; IgE binding (optical density) ([6]; sample 3): 0.25; IgE % reaction ([6]; sample 3): −16%
CC(=O)[C@@]1(O)CC[C@H]2[C@@H]3CCC4=CC(=O)CC[C@]4(C)[C@H]3CC[C@@]21C [HP, 17-α-hydroxy-progesterone] | 100% | 1.6 | −100% | 0.95 | 0.68 | 1.3 | 1.2 | 0.92 | 1.45 | 2.4 | −100% | 1.1 | 0.42 | 0.75 | 0.52 | 0.34 | 0.88 | −42% | 0.59 | −45% | IgG % reaction ([1]; sample 2): −100%; IgG % reaction ([1]; sample 3): −100%; IgM % reaction ([2]; sample 1): −100%; IgM % reaction ([2]; sample 2): −100%; IgM % reaction ([2]; sample 3): −100%; IgE % reaction ([3]; sample 1): −100%; IgE % reaction ([3]; sample 3): −100%; IgG % reaction ([4]; sample 1): −35%; IgG % reaction ([4]; sample 2): −42%; IgG % reaction ([4]; sample 3): −57%; IgM % reaction ([5]; sample 1): −38%; IgE binding (optical density) ([6]; sample 1): 0.22; IgE % reaction ([6]; sample 1): −28%; IgE binding (optical density) ([6]; sample 2): 0.65; IgE % reaction ([6]; sample 2): −43%; IgE binding (optical density) ([6]; sample 3): 0.73; IgE % reaction ([6]; sample 3): −46%
bovine serum albumin [BSA] |  |  |  |  |  |  |  |  |  |  |  |  |  |  |  |  |  |  |  |  | inhibition of anti-estrogen binding to estrogen (IgG) [7]: did not significantly absorb; IgG level after absorption [7, 9]: 1.79; IgG level after absorption [7, 10]: 1.13; IgG level after absorption [7, 11]: 0.81; inhibition of IgE anti-estrogen binding [8]: did not significantly absorb; IgE level after absorption [8, 12]: 2.24; IgE level after absorption [8, 13]: 1.53; IgE level after absorption [8, 14]: 1.26
B1 |  |  |  |  |  |  |  |  |  |  |  |  |  |  |  |  |  |  |  |  | inhibition of anti-estrogen binding to estrogen (IgG) [7]: did not significantly absorb; IgG level after absorption [7, 9]: 1.67; IgG level after absorption [7, 10]: 1.13; IgG level after absorption [7, 11]: 0.68; inhibition of IgE anti-estrogen binding [8]: did not significantly absorb; IgE level after absorption [8, 12]: 2.05; IgE level after absorption [8, 13]: 1.73; IgE level after absorption [8, 14]: 1.11
